Read-outs that look alike come from different tables or passages of the source.
Tests used:
[1] = test system: strain 13043 (Actinobacillus pleuropneumoniae); assay: Growth test / bactericidal action test in liquid medium; assay type: cell-based; settings: strain 13043, DMSO, tulathromycin at 16 times its MIC, cineole at 1 mg/L
Method: (§1) Growth tests are performed in liquid medium with prior dispersion of the antibiotic booster in a suitable solvent (here DMSO).
(§2) Bacterial growth kinetics are measured in the presence of tulathromycin (at a concentration of 4 or 16 times its MIC); tulathromycin (at a concentration of 4 or 16 times its MIC) and 1,8-cineole at a mass ratio of 1:1; and tulathromycin (at a concentration of 4 or 16 times its MIC) and 1 mg of 1,8-cineole.
2 Growth Test on Strain 13043 (Actinobactllus Pleuropneumonlae) […]
diamond: control (bacteria alone in DMSO) square: tulathromycin diluted in DMSO at a concentration of 16 times its MIC triangle: tulathromycin and cineole, diluted in DMSO, tulathromycin is at a concentration of 16 times its MIC, cineole at 1 mg/L
Cross (x): cineole control, at 1 mg/L

Staphylococcus [2] = assay: Resistance test: resistant mutant colonies on Mueller Hinton plate; assay type: cell-based
Method: One hundred microlitres of a Mueller Hinton broth culture of the strain to be studied (heavy inoculum>10^10 CFU/mL) is spread on a Mueller Hinton plate containing an oil concentration equal to 0.5/1/2/4 times the MIC of tulathromycin. After 48 hours of incubation, the presence or absence of colonies likely to be resistant mutants are observed.

E. coli = assay: MIC measurement in solid agar medium (CLSI); assay type: cell-based
Method: (§3) “MIC” means “minimal inhibitory concentration”, which is the lowest concentration of substance at which microbial growth is no longer observed after 18 to 24 hours of contact under conditions favourable to microbial growth.
(§4) The minimum inhibitory concentration measurement tests are performed in a solid agar medium according to current international standards (CLSI standards M7-A9 January 12): dispersion of the compounds to be tested in Mueller Hinton agar. An adaptation relating to the hydrophobicity of the compounds and compositions is however necessary to disperse them in the medium: the compounds are diluted in a solvent. The compounds and compositions incorporated in the agar may be first diluted in one or more solvents (Tween® 80 diluted in water, Tween@ 80 diluted in propylene, DMSO diluted in water). The medium may be cation-adjusted. The strains are deposited on the surface of the agar with a Steers apparatus. In the examples, various methods for dissolving the products are tested in parallel to circumvent problems related to the water/solvent distribution coefficient of the molecules (antimicrobial and potentiator) as the bacteria grow only in the aqueous phase. The technical constraint will not affect the in vivo tests. The same dilution methods can be used in liquid media (microplates and tubes). The same methodology is used with fungi.
(§5) MIC measurement: The minimum inhibitory concentration measurement tests are performed in solid agar medium according to current international standards (CLSI standards), according to the protocol defined above. The compounds and compositions incorporated in the agar may be first diluted in one or more solvents (ethanol, or DMSO diluted in water).

Staphylococcus [3] = assay: MIC measurement in solid agar medium (CLSI); assay type: cell-based
Method: as §3, §4, §5

Streptococcus suis = assay: MIC measurement in solid agar medium (CLSI); assay type: cell-based
Method: as §3, §4, §5

Enterococcus = assay: MIC measurement in solid agar medium (CLSI); assay type: cell-based
Method: as §3, §4, §5

[4] = test system: Actinobacillus pleuropneumoniae; assay: MIC measurement in solid agar medium (CLSI); assay type: cell-based
Method: as §3, §4, §5

[5] = test system: microorganisms grown in planktonic and biofilm cultures; settings: Hendry et al., J Antimicrob Chemother 2009; cited from earlier work
strain 13120 (E. coli) = assay: Growth test / bactericidal action test in liquid medium; assay type: cell-based; settings: strain 13120, DMSO, tulathromycin at 4 times its MIC, cineole at mass ratio 1:1 or 1 mg/L
Method: as §1, §2
1 Growth Test on Strain 13120 (Genus E. coli) […]
diamond: control (bacteria alone in DMSO) square: tulathromycin diluted in DMSO at a concentration of 4 times its MIC triangle: tulathromycin and cineole, diluted in DMSO, tulathromycin is at a concentration of 4 times its MIC, the tulathromycin/cineole mass ratio is 1:1 Cross (x): tulathromycin and cineole, diluted in DMSO, tulathromycin is at a concentration of 4 times its MIC, cineole at 1 mg/L

[6] = rat; cited from earlier work
[7] = cat; cited from earlier work

CCCNC[C@]1(O)[C@H](C)O[C@@H](O[C@H]2[C@H](C)[C@@H](O[C@@H]3O[C@H](C)C[C@H](N(C)C)[C@H]3O)[C@](C)(O)C[C@@H](C)CN[C@H](C)[C@@H](O)[C@](C)(O)[C@@H](CC)OC(=O)[C@@H]2C)C[C@@]1(C)OC [ATB]
Bacterial growth kinetics / number of bacteria (FIG. 2) [1]: bacteriostatic | Development of mutants (Staphylococcus [2]; S. aureus (strain 8147), summary of Table 4): countless mutants | Colonies likely to be resistant mutants after 48 hours (Staphylococcus [2]; strain 8146, ethanol solvent, 0.5 times the MIC of tulathromycin): overgrown | Colonies likely to be resistant mutants after 48 hours (Staphylococcus [2]; strain 8146, ethanol solvent, 1 times the MIC of tulathromycin): overgrown | Colonies likely to be resistant mutants after 48 hours (Staphylococcus [2]; strain 8146, ethanol solvent, 2 times the MIC of tulathromycin): overgrown | Colonies likely to be resistant mutants after 48 hours (Staphylococcus [2]; strain 8146, ethanol solvent, 4 times the MIC of tulathromycin): 0 | Colonies likely to be resistant mutants after 48 hours (Staphylococcus [2]; strain 8147, ethanol solvent, 0.5 times the MIC of tulathromycin): overgrown | Colonies likely to be resistant mutants after 48 hours (Staphylococcus [2]; strain 8147, ethanol solvent, 1 times the MIC of tulathromycin): overgrown | Colonies likely to be resistant mutants after 48 hours (Staphylococcus [2]; strain 8147, ethanol solvent, 2 times the MIC of tulathromycin): overgrown | Colonies likely to be resistant mutants after 48 hours (Staphylococcus [2]; strain 8147, ethanol solvent, 4 times the MIC of tulathromycin): overgrown | MIC (E. coli; strain 13120, DMSO): 2 µg/mL | MIC (E. coli; strain 13120, EtOH): 2.7 µg/mL | MIC of tulathromycin (E. coli; strain 13120, value used for growth test): 2 µg/mL | MIC (E. coli; strain 13121, DMSO): 2 µg/mL | MIC (E. coli; strain 13121, EtOH): 2.7 µg/mL | MIC (E. coli; strain 13122, DMSO): 2 µg/mL | MIC (E. coli; strain 13122, EtOH): 2 µg/mL | MIC (E. coli; strain 13123, DMSO): 2 µg/mL | MIC (E. coli; strain 13123, EtOH): 2 µg/mL | MIC (E. coli; strain 13124, DMSO): 1.5 µg/mL | MIC (E. coli; strain 13124, EtOH): 2 µg/mL | MIC (E. coli; strain 13125, DMSO): 1.5 µg/mL | MIC (E. coli; strain 13125, EtOH): 1.5 µg/mL | MIC (E. coli; strain 13126, DMSO): 2 µg/mL | MIC (E. coli; strain 13126, EtOH): 2 µg/mL | MIC (E. coli; strain 13128, DMSO): 2 µg/mL | MIC (E. coli; strain 13128, EtOH): 2 µg/mL | MIC (E. coli; strain 13129, DMSO): 2.7 µg/mL | MIC (E. coli; strain 13129, EtOH): 3.6 µg/mL | MIC (E. coli; strain 13130, DMSO): 2 µg/mL | MIC (E. coli; strain 13130, EtOH): 3.6 µg/mL | MIC (E. coli; strain 13131, DMSO): 1.5 µg/mL | MIC (E. coli; strain 13131, EtOH): 1.5 µg/mL | MIC (E. coli; strain 13132, DMSO): 2 µg/mL | MIC (E. coli; strain 13132, EtOH): 2.7 µg/mL | MIC (E. coli; strain 13133, DMSO): 1.5 µg/mL | MIC (E. coli; strain 13133, EtOH): 2 µg/mL | MIC (E. coli; strain 13134, DMSO): 1.5 µg/mL | MIC (E. coli; strain 13134, EtOH): 1.5 µg/mL | MIC (E. coli; strain 13170, DMSO): 1.5 µg/mL | MIC (E. coli; strain 13170, EtOH): 2 µg/mL | MIC (E. coli; strain 13171, DMSO): 2.7 µg/mL | MIC (E. coli; strain 13171, EtOH): 3.6 µg/mL | MIC (E. coli; strain 13172, DMSO): 1.5 µg/mL | MIC (E. coli; strain 13172, EtOH): 1.5 µg/mL | MIC (E. coli; strain 13173, DMSO): 1.5 µg/mL | MIC (E. coli; strain 13173, EtOH): 1.5 µg/mL | MIC (E. coli; strain 13174, DMSO): 2 µg/mL | MIC (E. coli; strain 13174, EtOH): 2 µg/mL | MIC (E. coli; strain 13175, DMSO): 2 µg/mL | MIC (E. coli; strain 13175, EtOH): 3.6 µg/mL | MIC (E. coli; strain Q54IE2, EtOH): 0.8 µg/mL | MIC (E. coli; strain Q96CEB, EtOH): 1.9 µg/mL | MIC (Staphylococcus [3]; strain 8146, EtOH): 0.45 µg/mL | MIC (Staphylococcus [3]; strain 8147, EtOH): 0.45 µg/mL | MIC (Staphylococcus [3]; strain 8148, EtOH): 0.45 µg/mL | MIC (Staphylococcus [3]; strain 8149, EtOH): 0.45 µg/mL | MIC (Staphylococcus [3]; strain 8238, EtOH): 0.45 µg/mL | MIC (Staphylococcus [3]; strain 12216, EtOH): 2.53 µg/mL | MIC (Staphylococcus [3]; strain 13218, EtOH): 1.07 µg/mL | MIC (Staphylococcus [3]; strain 13221, EtOH): 1.07 µg/mL | MIC (Streptococcus suis; strain 13092, DMSO): 1.1 µg/mL | MIC (Streptococcus suis; strain 13092, EtOH): 1.1 µg/mL | MIC (Enterococcus; Enterococcus strain without reference (Table 3, r6), EtOH): 0.9 µg/mL | MIC (Enterococcus; Enterococcus strain without reference (Table 3, r7), EtOH): 1.7 µg/mL | MIC (Enterococcus; strain 8152, EtOH): 1 µg/mL | MIC (Enterococcus; strain 8153, EtOH): 1.42 µg/mL | MIC ([4]; strain 13012, DMSO): 2 µg/mL | MIC ([4]; strain 13012, EtOH): 2 µg/mL | MIC ([4]; strain 13030, DMSO): 0.5 µg/mL | MIC ([4]; strain 13030, EtOH): 0.5 µg/mL | MIC ([4]; strain 13032, DMSO): 0.5 µg/mL | MIC ([4]; strain 13032, EtOH): 0.5 µg/mL | MIC ([4]; strain 13041, DMSO): 0.5 µg/mL | MIC ([4]; strain 13041, EtOH): 0.5 µg/mL | MIC ([4]; strain 13042, DMSO): 0.5 µg/mL | MIC ([4]; strain 13042, EtOH): 0.6 µg/mL | MIC ([4]; strain 13043, DMSO): 0.5 µg/mL | MIC ([4]; strain 13043, EtOH): 0.6 µg/mL | MIC of tulathromycin ([4]; strain 13043, value used for growth test): 0.5 mg | MIC ([4]; strain 13045, DMSO): 0.5 µg/mL | MIC ([4]; strain 13045, EtOH): 0.6 µg/mL

CC12CCC(CC1)C(C)(C)O2 [cineole, 1,8-cineole]
MIC of cineole in the publication [5]: 8000 to 64000 µg/mL | Bacterial growth kinetics / number of bacteria (FIG. 2) [1]: significantly decrease the number of bacteria | Bacterial growth kinetics / bactericidal action (FIG. 1) (strain 13120 (E. coli)): increase the bactericidal action of tulathromycin | Development of mutants (Staphylococcus [2]; strain 8146, cineole added to tulathromycin, summary of Table 5): decreases the development of mutants

Cc1ccc(C(C)C)cc1O [carvacrol]
lowest oral lethal dose [6]: 100 mg/kg | lowest oral lethal dose [7]: 100 mg/kg

From patent publication US10765659B2, “Potentiated tulathromycin” (SEPTEOS, priority 2016, dated 2020)
